Earlier results on 2 compounds are cited in patent publication US20230137840A1, “MINT MASK AND METHODS OF USE THEREOF” (Georgetown University, priority 2016, published 2023).

Series [1] concerns upper airway resistance in normal subjects. The conditions noted are these: inhaled; ten normal subjects.
For another series, the system named is nasal resistance. The following applies: several studies.
For another series, the system named is cough. The conditions noted are these: guinea pigs.
The test system of a further series is bronchoconstriction. The conditions noted are these: guinea pigs.
For another series, the system named is chemical irritants. The following applies: menthol vapor; irritants including acrolein, acetic acid, cyclohexanone.
The target of series [2] is transient receptor potential melastatin 8 (TRPM8) (Homo sapiens, UniProt Q7Z2W7). The following applies: present in cold-sensitive sensory neurons.
Sequence of transient receptor potential melastatin 8 (TRPM8) (Q7Z2W7 whole entry, species assumed): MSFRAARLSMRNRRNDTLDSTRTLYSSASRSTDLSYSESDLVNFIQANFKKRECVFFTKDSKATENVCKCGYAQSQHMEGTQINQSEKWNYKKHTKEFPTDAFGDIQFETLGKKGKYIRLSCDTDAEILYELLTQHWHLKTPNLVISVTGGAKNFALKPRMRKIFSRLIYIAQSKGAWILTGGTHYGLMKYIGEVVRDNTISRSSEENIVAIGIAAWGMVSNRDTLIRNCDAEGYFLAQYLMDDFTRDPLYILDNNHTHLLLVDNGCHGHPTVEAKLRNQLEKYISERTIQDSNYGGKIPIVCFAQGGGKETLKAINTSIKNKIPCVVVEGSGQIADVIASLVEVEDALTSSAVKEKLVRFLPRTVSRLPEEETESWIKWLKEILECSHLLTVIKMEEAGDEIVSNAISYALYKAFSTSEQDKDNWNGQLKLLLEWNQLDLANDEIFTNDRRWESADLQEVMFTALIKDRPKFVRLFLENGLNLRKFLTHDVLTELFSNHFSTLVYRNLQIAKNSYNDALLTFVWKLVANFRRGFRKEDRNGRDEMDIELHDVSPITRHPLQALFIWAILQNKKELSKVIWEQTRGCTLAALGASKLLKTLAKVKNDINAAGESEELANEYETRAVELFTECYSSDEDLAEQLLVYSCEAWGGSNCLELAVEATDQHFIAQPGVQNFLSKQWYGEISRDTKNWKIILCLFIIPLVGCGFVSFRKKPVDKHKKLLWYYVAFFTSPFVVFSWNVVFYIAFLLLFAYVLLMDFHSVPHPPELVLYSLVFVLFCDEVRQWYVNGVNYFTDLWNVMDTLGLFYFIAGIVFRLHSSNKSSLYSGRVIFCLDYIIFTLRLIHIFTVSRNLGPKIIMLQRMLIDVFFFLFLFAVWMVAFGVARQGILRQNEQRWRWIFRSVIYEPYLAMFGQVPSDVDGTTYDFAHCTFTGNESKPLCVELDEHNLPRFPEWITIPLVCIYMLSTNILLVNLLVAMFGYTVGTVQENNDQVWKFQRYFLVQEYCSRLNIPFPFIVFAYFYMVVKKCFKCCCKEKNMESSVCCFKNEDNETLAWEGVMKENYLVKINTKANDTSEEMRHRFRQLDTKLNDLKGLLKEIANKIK
Series [3] deals with transient receptor potential ankyrin 1 (TRPA1) (Homo sapiens, UniProt O75762). The following applies: irritant-sensing channel.
Sequence of transient receptor potential ankyrin 1 (TRPA1) (O75762 whole entry, species assumed): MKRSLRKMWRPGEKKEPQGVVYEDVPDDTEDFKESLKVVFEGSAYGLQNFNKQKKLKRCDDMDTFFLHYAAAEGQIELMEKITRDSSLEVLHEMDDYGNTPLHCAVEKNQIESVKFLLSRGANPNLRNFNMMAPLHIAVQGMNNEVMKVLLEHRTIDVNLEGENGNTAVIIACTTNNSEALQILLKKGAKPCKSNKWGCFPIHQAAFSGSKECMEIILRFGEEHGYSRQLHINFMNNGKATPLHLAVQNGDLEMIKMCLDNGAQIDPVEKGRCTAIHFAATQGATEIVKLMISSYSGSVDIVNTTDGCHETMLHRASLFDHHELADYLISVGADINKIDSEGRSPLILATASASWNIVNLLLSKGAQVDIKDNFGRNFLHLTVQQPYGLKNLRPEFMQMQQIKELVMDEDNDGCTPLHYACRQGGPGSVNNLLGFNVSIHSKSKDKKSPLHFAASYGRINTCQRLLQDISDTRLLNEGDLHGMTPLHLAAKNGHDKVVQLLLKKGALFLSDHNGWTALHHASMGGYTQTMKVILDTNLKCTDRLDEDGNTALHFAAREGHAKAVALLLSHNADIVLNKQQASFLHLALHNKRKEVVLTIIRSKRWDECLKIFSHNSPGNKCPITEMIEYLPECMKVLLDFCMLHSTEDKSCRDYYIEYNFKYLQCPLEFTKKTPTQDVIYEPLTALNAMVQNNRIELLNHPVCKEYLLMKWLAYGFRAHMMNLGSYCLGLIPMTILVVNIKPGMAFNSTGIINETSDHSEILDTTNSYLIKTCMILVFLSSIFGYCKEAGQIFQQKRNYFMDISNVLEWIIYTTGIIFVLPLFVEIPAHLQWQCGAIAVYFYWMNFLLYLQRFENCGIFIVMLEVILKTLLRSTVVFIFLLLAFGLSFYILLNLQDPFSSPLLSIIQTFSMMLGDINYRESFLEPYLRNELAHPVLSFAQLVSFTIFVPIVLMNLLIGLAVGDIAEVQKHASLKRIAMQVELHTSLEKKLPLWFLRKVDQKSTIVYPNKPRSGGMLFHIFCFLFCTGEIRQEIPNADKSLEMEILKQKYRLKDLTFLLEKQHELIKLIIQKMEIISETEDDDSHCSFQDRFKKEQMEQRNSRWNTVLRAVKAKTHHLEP
Series [4] deals with patients with chronic cough. The conditions noted are these: menthol inhalation.
The test system of a further series is cough reflex. The conditions noted are these: menthol vapor; taste of sucrose.
Series [5] has as its system cough after fiberoptic bronchoscopy. The conditions noted are these: premedication with 1% menthol inhalation.
A further series deals with asthmatics. The following applies: nebulized, 10 mg twice daily for four weeks; 23 asthmatics.

The structures appear in SMILES notation.

`CC(C)[C@@H]1CC[C@@H](C)C[C@H]1O` [menthol, (1R,2S,5R)-2-Isopropyl-5-methylcyclohexanol]: the “effect on upper airway resistance” value in [1] is on record as “no effect”. Further, the “effect on nasal resistance” value with nasal resistance is recorded as “no effect”. For the same compound, in the series on cough, the “antitussive (cough suppressant) effect” value was “antitussive (cough suppressant) effects”. Further, in the series on bronchoconstriction, the capsaicin-induced bronchoconstriction entry is “attenuates” and the “neurokinin A-induced bronchoconstriction” value is given as “attenuates”. For the same compound, in the series with bronchial smooth muscle, the “bronchial contraction due to high extracellular potassium” value is “inhibits” and the “bronchial contraction due to methacholine” value is listed as “inhibits”. In addition, the “relaxation of bronchi preconstricted with acetylcholine or potassium chloride” value in the series on bronchi is given as “relaxes”. Further, the “reactivity to chemical irritants” value in the series with chemical irritants is on record as “reduces reactivity”. For the same compound, in [2], the “interaction with TRPM8” value is reported as “interacts”. The “interaction with TRPA1” value in series [3] was “interacts”. In addition, in series [4], the “cough sensitivity to inhaled capsaicin” value was “reduced cough sensitivity” and the “effect on inspiratory flows” value is “had an effect”. For the same compound, the “cough reflex to capsaicin challenge” value in the series with cough reflex is reported as “reduced cough reflex”. In addition, the “effect on cough after fiberoptic bronchoscopy” value in series [5] is “no effect”. For the same compound, in the series on asthmatics, the “diurnal variation in peak expiratory flow rate (PEER)” value was “decreased”, the “effect on FEV1 (forced expiratory volume at 1 second)” value is “no effect”, the “effect on VC (vital capacity)” value is on record as “no effect” and the “use of metered dose inhalers” value is “reduced use”. Further, in the series with asthmatics, the wheezing episodes result was “reduced wheezing episodes”.
Consider `OC[C@H]1O[C@@](CO)(O[C@H]2O[C@H](CO)[C@@H](O)[C@H](O)[C@H]2O)[C@@H](O)[C@@H]1O` [sucrose], for which the “cough reflex to capsaicin challenge” value with cough reflex is listed as “reduced cough reflex”.
